{"source": "patent US4407746A", "about": "“Cyclohexyl and phenyl substituted enkephalins” (G. D. Searle & Co., priority 1981, dated 1983)", "origin": "cited, not measured here", "key": {"[1]": {"test_system": "brain opiate receptor sites", "conditions": "partially purified brain opiate receptor sites; Bradberry et al. 1976"}, "rat": {"test_system": "rat", "conditions": "injected directly into the brain of the rat; Belluzi et al. 1976"}}}
{"substance": "methionine enkephalin", "values": [{"measurement": "binding to brain opiate receptor sites", "setting": "[1]", "value": "binds sterospecifically"}, {"measurement": "analgesic activity", "setting": "rat", "value": "weak, fleeting analgesic activity"}]}
